Experiment: gradient 5% acetonitrile 3 min, to 50% in 2 min, to 85% in 15 min, held 3 min, 100 µL/min
Details: column: Zorbax Extend-C18 2.1 x 50 mm; eluents: water / acetonitrile, 0.1% formic acid
Procedure, shortened: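 Pure standards were analyzed in mixtures of ~100 molecules using HPLC coupled to a quadrupole time-of-flight mass spectrometer, in both positive and negative ionization mode. Separation used a Zorbax Extend-C18 column (2.1 × 50 mm, 1.8 μm) at 100 μL/min, with water and acetonitrile each containing 0.1% formic acid. Dead and dwell volumes were 40 μL and 900 μL, and data were collected over 3 months. Retention time was read from computationally picked adduct peaks, each inspected manually.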

SMILES	RP-LC retention time
Cc1ccc2[nH]c(=O)c(CCC(=O)NCCCN3CCc4ccccc4C3)cc2c1	629 s
CC(C)n1cnnc1-c1nn(C)c2c1CN(C(=O)CC1CCCC1)CC2	732 s
CCOc1ccccc1CN1CCn2c(nnc2[C@@H]2C[C@@H](O)CN2Cc2cccnc2)C1	581 s
COc1cccc(S(=O)(=O)N2CCC(c3noc(-c4ccccn4)n3)C2)c1 (configuration not stated)	774 s
Cn1cc(CCN2CCC(C(=O)NCC3CCCO3)CC2)c2cccnc21 (configuration not stated)	562 s
COc1ccc(NC(=O)C2CCCN(c3ncnc4c3oc3ccccc34)C2)cc1 (configuration not stated)	747 s
CC(=O)Oc1ccc(C(=O)NCCc2c[nH]c3ccc(Cl)cc23)cc1	853 s
COc1ccc(OC)c(NC(=O)NC(C(=O)N2CCc3ccccc32)C(C)C)c1 (configuration not stated)	984 s
O=C(Nc1c(-c2ccccc2)nc2ccccn12)c1ccc(Cl)cc1Cl	677 s
Cn1cnc2cc(CNC(=O)c3ccc4cc[nH]c4c3)ccc21	603 s
c1ccc(-c2cc3ccccc3[nH]2)cc1	1090 s
CCCNC(=O)CCc1nc2ccccc2n(CC(=O)Nc2cc(Cl)c(OC)cc2OC)c1=O	790 s
O=C(Cn1c(C(=O)NCc2ccc(F)cc2F)cccc1=O)NC1CCCC1	868 s
O=C(NCc1ccccc1Cl)c1csc(C(=O)NC2CCCC2)n1	931 s
CN(C)Cc1nc(-c2cn(C)c3ccccc23)no1	684 s
Cc1nn(CC(=O)NC2CC2)c(=O)c2c(-n3cccc3)n(-c3cccc(F)c3)nc12	828 s
Cn1cnnc1SCCNC(=O)Cc1csc(Nc2ncccn2)n1	564 s
O=C1CN(c2ccccc2NC(=O)c2cc(-c3ccccc3)on2)CCN1	798 s
Cc1ccccc1Cn1nc2c(S(=O)(=O)N3CCCC3)cccn2c1=O	846 s
CC1CCN(c2ccc(-c3noc(CCC(=O)N4CCN(C5CCCCC5)CC4)n3)cc2)CC1	733 s
O=C(Nc1ccc(F)cc1F)N1CCC(N2CCN(Cc3ccccc3)C(=O)C2=O)CC1	681 s
COc1ccc(C(=O)N2CCCC(COc3ccc(C(=O)NC(C)C)cc3)C2)cc1F (configuration not stated)	846 s
CCOC(=O)C1=C(C)NC2=C(C(=O)CC(C)(C)C2)C1c1ccc([N+](=O)[O-])cc1 (configuration not stated)	832 s

SMILES	RP-LC retention time
COc1ccc(CNS(=O)(=O)c2cc3n(c2)CCCNC3=O)cc1	641 s
Cc1cc(Cl)ccc1OCC(=O)NCC1CCOCC1	828 s
CCOC(=O)c1c(S(=O)(=O)N2CCC(C(=O)NCc3ccc(F)cc3)CC2)c(C)n(C)c1C	808 s
COc1ccc(OCC(=O)Nc2ccc(-c3nc(-c4ccc(OC)cc4)no3)cc2)cc1	1180 s
Cc1cc(C)cc(NC(=O)N2CCC(CN3CCCC(C)C3)CC2)c1 (configuration not stated)	648 s
CCOC(=O)c1ccc(NC(=O)c2cn3c4c(ccc(Cl)c4c2=O)OCC3)cc1	1040 s
COc1ccccc1N1CCN(CCCCNC(=O)c2ccc3ccccc3c2)CC1	666 s
C[C@H]1CN(C(=O)Nc2ccccc2Cl)C[C@@H]1c1nc(-c2ccncc2)no1	854 s
CNC(=O)c1csc(NC(=O)c2cc(Cl)ccc2Cl)n1	685 s
COc1ccc(NC(=O)c2[nH]c3cc(C)sc3c2CN(C)C)c(OC)c1	678 s
COc1ccc(N2CCN(S(=O)(=O)c3cc(-c4nnc(C5CC5)o4)co3)CC2)cc1	909 s
CCN(CCCNC(=O)C1CCN(c2nccc3c(C)nn(C)c23)CC1)c1ccccc1	574 s
Cc1ccc(N2CC(c3noc(-c4ccco4)n3)CC2=O)cc1 (configuration not stated)	877 s
O=C(NCCc1c[nH]c2ccccc12)C(=O)NCc1cccs1	783 s
CN(C)c1ccc(O)c2c1C[C@H]1C[C@H]3[C@H](N(C)C)C(=O)C(C(N)=O)=C(O)[C@@]3(O)C(=O)C1=C2O	596 s
COc1ccc(N2CCN(C(=O)CN3CCN(Cc4ccccc4)C3=O)CC2)cc1	714 s
COCCCNC(=O)C1CCN(c2nc3ccc(-c4cccs4)nc3s2)CC1	801 s
COc1cccc2c1OC1(CCN(C(C)=O)CC1)N1N=C(c3cccs3)CC21 (configuration not stated)	835 s
Cc1sc(-c2nnc(C3CCC3)o2)cc1NC(=O)Cc1ccc(F)cc1	1020 s
CCc1nc(N)n(CC(=O)Nc2cccc(C)c2C)c(=O)c1C	638 s
CCCCN1C(=O)C(CC(=O)NCCC)Sc2ncccc21 (configuration not stated)	750 s
CCCNC(=O)C1CCN(S(=O)(=O)c2ccc3c(c2)sc(=O)n3CCC)CC1	824 s
Cc1nc(-c2ccc3c(c2)n(CC(=O)NCCC2=CCCCC2)c(=O)n3C(C)C)no1	915 s

SMILES	RP-LC retention time
CC(=O)Nc1ccc(S(=O)(=O)NCc2nc(C)no2)cc1	599 s
CCCN(CC1CCOC1)C(=O)c1ccc(F)c(Cl)c1 (configuration not stated)	842 s
CCOC(=O)c1cccc(Nc2c(C(=O)N3CCCCC3C)cnc3nc(C)ccc23)c1 (configuration not stated)	666 s
CCOc1ccc2nc(Nc3ncc4c(n3)CC(c3ccc(F)cc3)CC4=O)nc(C)c2c1 (configuration not stated)	833 s
COc1nccnc1N1CCC(N(C)C(=O)c2ccc(C)s2)C1 (configuration not stated)	785 s
CCCn1cc(CCNC(=O)Nc2cccc(C)c2)c2cccnc21	782 s
O=C(CN1CCN(C(=O)Nc2ccc(F)cc2)CC1=O)NC1CCCCC1	701 s
O=C(CCc1nc2ccccc2n(CC(=O)Nc2ccc3c(c2)OCCO3)c1=O)NCc1ccccc1	782 s
Cc1ccc(NC(=O)Cn2c(=O)n(-c3ccc(F)cc3)c(=O)c3c2cc(C)n3C)cc1F	882 s
CSc1cccc(NC(=O)COc2cccc(-c3nnc4n3CCCC4)c2)c1	728 s
CCCN1C(=O)COc2ccc(-c3csc(NC(=O)C(C)(C)C)n3)cc21	1010 s
Cn1cc(-c2ccncc2)cc1C(=O)NCc1ccc(F)cc1	640 s
Cc1ccc(C)c(-n2ccn(Cc3nc(-c4ccc(F)cc4)no3)c(=O)c2=O)c1	910 s
N#Cc1ccc(Cn2cc(C(=O)C(N)=O)c3ccccc32)cc1	810 s
Cc1noc(C2CN(C(=O)NCc3ccc(F)cc3)CC23CCOCC3)n1 (configuration not stated)	698 s
Cc1ccc(-n2nnc(C(=O)O)c2-c2ccccn2)c(F)c1	697 s
CCN1C(=O)c2cc(C(=O)N3CCN(c4ncccn4)CC3)nn2CC1(C)C(=O)NC1CCCC1 (configuration not stated)	691 s
COc1ccc(S(=O)Cc2ccc(C(=O)NCCN(C)C)o2)cc1 (configuration not stated)	530 s
Cc1ccc(C(=O)N2CCC3(CC2)N=C(c2ccc(Br)cc2)NO3)cc1	875 s
Cn1c(=O)sc2cc(S(=O)(=O)N3CCC(C(=O)NC4CCCCCC4)CC3)ccc21	896 s
O=C(Cn1cnc2c(nc3n2CCCCC3)c1=O)N1CCC(Cc2ccccc2)CC1	764 s

From the METLIN SMRT retention time set (Domingo-Almenara et al. 2019)
